Data taken from patent US20150141381A1, “TETRACYCLINE COMPOUNDS HAVING TARGET THERAPEUTIC ACTIVITIES” (Paratek Pharmaceuticals, Inc., priority 2001, published 2015).

Columns and labels:
S. aureus RN450 = test: In Vitro Anti-Bacterial Activity Assay (MIC), gram positive; type: cell-based; conditions: Staphylococcus aureus, RN450, 18 h, gram positive bacteria; read-out: Antibiotic Activity Gram + (MIC)
E. coli mL308 225 = test: In Vitro Anti-Bacterial Activity Assay (MIC), gram negative; type: cell-based; conditions: Escherichia coli, ML308225, 18 h, gram negative bacteria; read-out: Antibiotic Activity Gram − (MIC)

Structure (SMILES)	MIC (S. aureus RN450)	MIC (E. coli mL308 225)
C[C@H]1c2ccc(N3CCOCC3)c(O)c2C(=O)C2=C(O)[C@]3(O)C(=O)C(C(N)=O)=C(O)[C@@H](N(C)C)[C@@H]3[C@@H](O)[C@@H]21	> 4 µg/mL	> 4 µg/mL
CN(C)[C@@H]1C(O)=C(C(N)=O)C(=O)[C@@]2(O)C(O)=C3C(=O)c4c(ccc(N5CCOCC5)c4O)C[C@H]3C[C@@H]12	> 4 µg/mL	> 4 µg/mL
CN(C)c1cc(-c2ccc(CN3CCN(CCO)CC3)o2)c(O)c2c1C[C@H]1C[C@H]3[C@H](N(C)C)C(O)=C(C(N)=O)C(=O)[C@@]3(O)C(O)=C1C2=O	< 4 µg/mL	> 4 µg/mL
CN(C)[C@@H]1C(O)=C(C(N)=O)C(=O)[C@@]2(O)C(O)=C3C(=O)c4c(O)ccc(CN5CCOCC5)c4C[C@H]3C[C@@H]12	< 4 µg/mL	> 4 µg/mL
CN(C)c1cc(N2CCOCC2)c(O)c2c1C[C@H]1C[C@H]3[C@H](N(C)C)C(O)=C(C(N)=O)C(=O)[C@@]3(O)C(O)=C1C2=O	> 4 µg/mL	> 4 µg/mL
CC1CCN(CC(=O)c2ccc(O)c3c2C[C@H]2C[C@H]4[C@H](N(C)C)C(O)=C(C(N)=O)C(=O)[C@@]4(O)C(O)=C2C3=O)CC1	< 4 µg/mL	> 4 µg/mL
CN(C)[C@@H]1C(O)=C(C(N)=O)C(=O)[C@@]2(O)C(O)=C3C(=O)c4c(O)ccc(CNCc5ccccc5)c4C[C@H]3C[C@@H]12	< 4 µg/mL	< 4 µg/mL
COCc1cccc(-c2ccc(O)c3c2C[C@H]2C[C@H]4[C@H](N(C)C)C(O)=C(C(N)=O)C(=O)[C@@]4(O)C(O)=C2C3=O)c1	< 4 µg/mL	< 4 µg/mL
CCCC(C)c1ccc(OC)c(-c2ccc(O)c3c2C[C@H]2C[C@H]4[C@H](N(C)C)C(O)=C(C(N)=O)C(=O)[C@@]4(O)C(O)=C2C3=O)c1 (stereo partly drawn)	< 4 µg/mL	> 4 µg/mL
COC(=O)CCc1cccc(-c2ccc(O)c3c2C[C@H]2C[C@H]4[C@H](N(C)C)C(O)=C(C(N)=O)C(=O)[C@@]4(O)C(O)=C2C3=O)c1	< 4 µg/mL	> 4 µg/mL
CC(=O)Cc1cc(I)c2c(c1O)C(=O)C1=C(O)[C@]3(O)C(=O)C(C(N)=O)=C(O)[C@@H](N(C)C)[C@@H]3C[C@@H]1C2	> 4 µg/mL	> 4 µg/mL
CN(C)c1cc(NCc2ccc([N+](=O)[O-])o2)c(O)c2c1C[C@H]1C[C@H]3[C@H](N(C)C)C(O)=C(C(N)=O)C(=O)[C@@]3(O)C(O)=C1C2=O	< 4 µg/mL	> 4 µg/mL
CN(C)c1cc(-c2ccc(CN3CCN(c4ccccc4F)CC3)o2)c(O)c2c1C[C@H]1C[C@H]3[C@H](N(C)C)C(O)=C(C(N)=O)C(=O)[C@@]3(O)C(O)=C1C2=O	> 4 µg/mL	> 4 µg/mL
CN1CCN(Cc2ccc(-c3cc(N(C)C)c4c(c3O)C(=O)C3=C(O)[C@]5(O)C(=O)C(C(N)=O)=C(O)[C@@H](N(C)C)[C@@H]5C[C@@H]3C4)o2)CC1	< 4 µg/mL	> 4 µg/mL
CN(C)CCN(Cc1ccccc1)Cc1ccc(-c2cc(N(C)C)c3c(c2O)C(=O)C2=C(O)[C@]4(O)C(=O)C(C(N)=O)=C(O)[C@@H](N(C)C)[C@@H]4C[C@@H]2C3)o1	> 4 µg/mL	> 4 µg/mL
CN(C)c1cc(CN2CCCC2)c(O)c2c1C[C@H]1C[C@H]3[C@H](N(C)C)C(O)=C(C(N)=O)C(=O)[C@@]3(O)C(O)=C1C2=O	< 4 µg/mL	> 4 µg/mL
CN(C)[C@@H]1C(O)=C(C(N)=O)C(=O)[C@@]2(O)C(O)=C3C(=O)c4c(O)ccc(CN5CCCC5)c4C[C@H]3C[C@@H]12	< 4 µg/mL	< 4 µg/mL
CN(C)[C@@H]1C(O)=C(C(N)=O)C(=O)[C@@]2(O)C(O)=C3C(=O)c4c(O)ccc(-c5cccnc5)c4C[C@H]3C[C@@H]12	< 4 µg/mL	< 4 µg/mL
CN(C)c1cc(NC2CC(C)(C)NC(C)(C)C2)c(O)c2c1C[C@H]1C[C@H]3[C@H](N(C)C)C(O)=C(C(N)=O)C(=O)[C@@]3(O)C(O)=C1C2=O	> 4 µg/mL	> 4 µg/mL
CN(C)[C@@H]1C(O)=C(C(N)=O)C(=O)[C@@]2(O)C(O)=C3C(=O)c4c(O)ccc(-c5ccncc5)c4C[C@H]3C[C@@H]12	< 4 µg/mL	< 4 µg/mL
CN(C)[C@@H]1C(O)=C(C(N)=O)C(=O)[C@@]2(O)C(O)=C3C(=O)c4c(O)ccc(-c5ccc(CNc6cccnc6)cc5)c4C[C@H]3C[C@@H]12	< 4 µg/mL	> 4 µg/mL
CN(C)[C@@H]1C(O)=C(C(N)=O)C(=O)[C@@]2(O)C(O)=C3C(=O)c4c(O)c(CNc5ccccc5)cc(I)c4C[C@H]3C[C@@H]12	< 4 µg/mL	> 4 µg/mL
CC(=O)OCC(=O)Nc1ccc(-c2ccc(O)c3c2C[C@H]2C[C@H]4[C@H](N(C)C)C(O)=C(C(N)=O)C(=O)[C@@]4(O)C(O)=C2C3=O)cc1	< 4 µg/mL	> 4 µg/mL
CN(C)[C@@H]1C(O)=C(C(N)=O)C(=O)[C@@]2(O)C(O)=C3C(=O)c4c(O)ccc(-c5ccc(NC(=O)NCCCCl)cc5)c4C[C@H]3C[C@@H]12	< 4 µg/mL	> 4 µg/mL

Structure (SMILES)	MIC (S. aureus RN450)	MIC (E. coli mL308 225)
COC(=O)CCC(=O)Nc1ccc(-c2ccc(O)c3c2C[C@H]2C[C@H]4[C@H](N(C)C)C(O)=C(C(N)=O)C(=O)[C@@]4(O)C(O)=C2C3=O)cc1	< 4 µg/mL	> 4 µg/mL
CN1CCN(c2cc(N(C)C)c3c(c2O)C(=O)C2=C(O)[C@]4(O)C(=O)C(C(N)=O)=C(O)[C@@H](N(C)C)[C@@H]4C[C@@H]2C3)CC1	> 4 µg/mL	> 4 µg/mL
CNCc1cc(CNCC(C)(C)C)c2c(c1O)C(=O)C1=C(O)[C@]3(O)C(=O)C(C(N)=O)=C(O)[C@@H](N(C)C)[C@@H]3C[C@@H]1C2	> 4 µg/mL	> 4 µg/mL
CN(C)[C@@H]1C(O)=C(C(N)=O)C(=O)[C@@]2(O)C(O)=C3C(=O)c4c(O)ccc(-c5cnccn5)c4C[C@H]3C[C@@H]12	< 4 µg/mL	< 4 µg/mL
COCC(=O)Nc1cccc(-c2ccc(O)c3c2C[C@H]2C[C@H]4[C@H](N(C)C)C(O)=C(C(N)=O)C(=O)[C@@]4(O)C(O)=C2C3=O)c1	< 4 µg/mL	> 4 µg/mL
Cc1ccc(-c2ccc(O)c3c2C[C@H]2C[C@H]4[C@H](N(C)C)C(O)=C(C(N)=O)C(=O)[C@@]4(O)C(O)=C2C3=O)nc1	< 4 µg/mL	< 4 µg/mL
CN(C)c1cc(CNc2ccccn2)c(O)c2c1C[C@H]1C[C@H]3[C@H](N(C)C)C(O)=C(C(N)=O)C(=O)[C@@]3(O)C(O)=C1C2=O	< 4 µg/mL	> 4 µg/mL
Cc1ccnc(-c2ccc(O)c3c2C[C@H]2C[C@H]4[C@H](N(C)C)C(O)=C(C(N)=O)C(=O)[C@@]4(O)C(O)=C2C3=O)c1	< 4 µg/mL	< 4 µg/mL
CN(C)[C@@H]1C(O)=C(C(N)=O)C(=O)[C@@]2(O)C(O)=C3C(=O)c4c(O)ccc(-c5cncc(Br)c5)c4C[C@H]3C[C@@H]12	< 4 µg/mL	< 4 µg/mL
CN(C)c1cc(NCc2cc[nH]n2)c(O)c2c1C[C@H]1C[C@H]3[C@H](N(C)C)C(O)=C(C(N)=O)C(=O)[C@@]3(O)C(O)=C1C2=O	> 4 µg/mL	> 4 µg/mL
CN(C)c1cc(NCc2ccc([N+](=O)[O-])cc2)c(O)c2c1C[C@H]1C[C@H]3[C@H](N(C)C)C(O)=C(C(N)=O)C(=O)[C@@]3(O)C(O)=C1C2=O	< 4 µg/mL	> 4 µg/mL
CCN(CC)Cc1cc(N(C)C)c2c(c1O)C(=O)C1=C(O)[C@]3(O)C(=O)C(C(N)=O)=C(O)[C@@H](N(C)C)[C@@H]3C[C@@H]1C2	< 4 µg/mL	> 4 µg/mL
CN(C)[C@@H]1C(OCc2ccccc2)=C(C(N)=O)C(=O)[C@@]2(O)C(O)=C3C(=O)c4c(O)cccc4C[C@H]3C[C@@H]12	> 4 µg/mL	> 4 µg/mL
CCCCOc1cccc2c1C(=O)C1=C(O)[C@]3(O)C(=O)C(C(N)=O)=C(O)[C@@H](N(C)C)[C@@H]3C[C@@H]1C2	> 4 µg/mL	> 4 µg/mL
CN(C)[C@@H]1C(OCc2ccccc2)=C(C(N)=O)C(=O)[C@@]2(O)C(O)=C3C(=O)c4c(O)ccc(I)c4C[C@H]3C[C@@H]12	< 4 µg/mL	< 4 µg/mL
COC(=O)C1CCN(CC(=O)Nc2ccc(-c3ccc(O)c4c3C[C@H]3C[C@H]5[C@H](N(C)C)C(O)=C(C(N)=O)C(=O)[C@@]5(O)C(O)=C3C4=O)cc2)CC1	< 4 µg/mL	> 4 µg/mL
CN(C)[C@@H]1C(O)=C(C(N)=O)C(=O)[C@@]2(O)C(O)=C3C(=O)c4c(O)ccc(-c5ccc(-n6cccc6)nc5)c4C[C@H]3C[C@@H]12	< 4 µg/mL	< 4 µg/mL
CN(C)[C@@H]1C(O)=C(C(N)=O)C(=O)[C@@]2(O)C(O)=C3C(=O)c4c(O)ccc(-c5ccc(O)nc5)c4C[C@H]3C[C@@H]12	< 4 µg/mL	< 4 µg/mL
CC(=O)Nc1ccc(-c2ccc(O)c3c2C[C@H]2C[C@H]4[C@H](N(C)C)C(O)=C(C(N)=O)C(=O)[C@@]4(O)C(O)=C2C3=O)cn1	< 4 µg/mL	> 4 µg/mL
CCCCOc1cccc2c1C(=O)C1=C(O)[C@]3(O)C(=O)C(C(N)=O)=C(O)[C@@H](N(C)C)[C@@H]3[C@@H](O)[C@@H]1[C@H]2C	> 4 µg/mL	> 4 µg/mL
CN(Cc1cc(N(C)C)c2c(c1O)C(=O)C1=C(O)[C@]3(O)C(=O)C(C(N)=O)=C(O)[C@@H](N(C)C)[C@@H]3C[C@@H]1C2)CC(C)(C)C	< 4 µg/mL	< 4 µg/mL
CC(CC(F)(F)F)N(C)Cc1cc(N(C)C)c2c(c1O)C(=O)C1=C(O)[C@]3(O)C(=O)C(C(N)=O)=C(O)[C@@H](N(C)C)[C@@H]3C[C@@H]1C2 (stereo partly drawn)	< 4 µg/mL	< 4 µg/mL
CN(C)[C@@H]1C(O)=C(C(N)=O)C(=O)[C@@]2(O)C(O)=C3C(=O)c4c(O)ccc(-c5ccncc5Cl)c4C[C@H]3C[C@@H]12	< 4 µg/mL	< 4 µg/mL
CN(C)c1cc(CC2=COc3ccccc3C2)c(O)c2c1C[C@H]1C[C@H]3[C@H](N(C)C)C(O)=C(C(N)=O)C(=O)[C@@]3(O)C(O)=C1C2=O	< 4 µg/mL	> 4 µg/mL
